Data reported in patent publication US8741946B2, “Inhibitors of flaviviridae viruses” (priority 2011, dated 2014).
Like-named read-outs stand apart in the source and are kept apart here.

Columns and labels:
HCV replicon = HCV replicon assay in Huh-7 cells (luciferase); format: cell-based; settings: Hepatitis C virus, 72 h; Huh-7 HCV replicon cells, 3 days incubation, luciferase readout; read-out: Wild-type EC50
Description: The anti-HCV activity of the compounds of this invention was tested in a human hepatoma Huh-7 cell line harboring a HCV replicon. The assay comprised the following steps:
Serial dilution was performed in 100% DMSO in a 384-well plate. A solution containing a compound at 225-fold concentration of the starting final serial dilution concentration was prepared in 100% DMSO and 15 μL added to the pre-specified wells in column 3 or 13 of a polypropylene 384-well plate. The rest of the 384-well plate was filled with 10 μL100% DMSO except for columns 23 and 24, where 10 μL of 500 uM a HCV protease inhibitor (ITMN-191) in 100% DMSO was added. The HCV protease inhibitor was used a control of 100% inhibition of HCV replication. The plate was then placed on a Biomek FX Workstation to start the serial dilution. The serial dilution was performed for ten cycles of 3-fold dilution from column 3 to 12 or from column 13 to 22.
To each well of a black polypropylene 384-well plate, 90 μL of cell media containing 1600 suspended Huh-7 HCV replicon cells was added with a Biotek uFlow Workstation. A volume of 0.4 μL of the compound solution was transferred from the serial dilution plate to the cell culture plate on a Biomek FX Workstation. The DMSO concentration in the final assay condition was 0.44%. The plates were incubated for 3 days at 37° C. with 5% CO2 and 85% humidity.
a) Assessment of cytotoxicity: The media in the 384-well cell culture plate was aspirated with a Biotek EL405 plate-washer. A volume of 50 μL of a solution containing 400 nM Calcein AM in 100% PBS was added to each well of the plate with a Biotek uFlow Workstation. The plate was incubated for 30 minutes at room temperature before the fluorescence signal ([…]) was measured with a Perkin Elmer Envision Plate Reader.
b) Assessment of inhibition of viral replication: The calcein-PBS solution in the 384-well cell culture plate was aspirated with a Biotek EL405 plate-washer. A volume of 20 μL of Dual-Glo luciferase buffer (Promega, Dual-Glo Luciferase Assay Reagent, cat. #E298B) was added to each well of the plate with a Biotek uFlow Workstation. The plate was incubated for 10 minutes at room temperature. A volume of 20 μL of a solution containing 1:100 mixture of Dual-Glo Stop & Glo substrate (Promega, Dual-Glo Luciferase Assay Reagent, cat. #E313B) and Dual-Glo Stop & Glo buffer (Promega, Dual-Glo Luciferase Assay Reagent, cat. #E314B) was then added to each well of the plate with a Biotek uFlow Workstation. The plate was incubated at room temperature for 10 minutes before the luminescence signal was measured with a Perkin Elmer Envision Plate Reader.
The percent cytotoxicity was determined by calcein AM conversion to fluorescent product. The average fluorescent signal from the DMSO control wells were defined as 100% nontoxic. The individual fluorescent signal from testing compound treated well was divided by the average signal from DMSO control wells and then multiplied by 100% to get the percent viability. The percent anti-HCV replication activity was determined by the luminescence signal from the testing well compared to DMSO controls wells. The background signal was determined by the average luminescence signal from the HCV protease inhibitor treated wells and was subtracted from the signal from the testing wells as well as the DMSO control wells. Following 3-fold serial dilutions, the EC50 and CC50 values were calculated by fitting % inhibition at each concentration to the following equation: % inhibition=100%/[(EC50/[I])^b+1]
Where b is Hill's coefficient. See, for reference, Hill, A. V., The Possible Effects of the Aggregation of the Molecules of Hemoglobin on its Dissociation Curves, J. Physiol. 40: iv-vii. (1910).
% inhibition values at a specific concentration, for example 2 μM, can also be derived from the formula above.

[1] = target: T1, NS5B mutant M423T (amino acids 1-570; GT-1b) (Hepatitis C virus genotype 1b, UniProt Q9WMX2, M2842T); test: Surface Plasmon Resonance binding affinity to M423T NS5B; parameters: species or system HCV GT-1b
T1 construct: 21 residue C-terminal truncated forms of the NS5b protein (amino acids 1-570); GT-1b; made in house
Excerpt: (§1) Compounds with minimal fold difference in binding affinity may have particular clinical utility.
(§2) In vitro studies with NS5B employed soluble, 21 residue C-terminal truncated forms of the NS5b protein (amino acids 1-570; GT-1b; wild-type and mutant M423T. See Hung, M., Wang, R., Liu, X.: ‘Preparation of HCV NS3 and NS5B to support small molecule drug discovery’, Current Protocols in Pharmacology, 2011, in press). Surface Plasmon Resonance (SPR) was used to measure the binding affinity of compounds described herein to the protein constructs. Standard amine coupling was employed to link the protein to the surface of a Biacore CM5 sensor chip using 10 mM sodium acetate pH 5.5 buffer to an immobilization level of ˜2500 RU. Experiments were performed using a Biacore T100 system at 25° C. in running buffer (50 mM Hepes pH 7.5, 5 mM MgCl2, […], 1 mM EDTA, 1 mM TCEP, 0.01% P20, 5% DMSO). Compounds were tested in a 3-fold concentration dilution series for 8 concentrations starting at 162 nM, using an association phase of 60 seconds and dissociation phase of 5 minutes at a flow rate of 100 μl min^−1. At the end of each binding cycle, a 3-second injection of a buffer (10 mM disodium tetraborate, 1M NaCl, pH8.5) at 40 μl min^−1 was used as a regeneration step to remove compounds still bound to the NS5B surface. Response data were processed using the following procedure: injections aligned in X and Y directions, double referenced using both a reference surface and buffer injections, and DMSO correction for excluded volume effects. Processed data were analyzed using non-linear least squares analysis with a global fit of a 1:1 binding model with mass transport.

[2] = tested on: NS5B mutant M423T (amino acids 1-570; GT-1b); test: as above; parameters: species or system HCV GT-1b; settings: M423T KD versus wild-type KD
Excerpt: as §1, §2

[3] = target: T2, wild-type NS5B (amino acids 1-570; GT-1b) (Hepatitis C virus genotype 1b, UniProt Q9WMX2); test: Surface Plasmon Resonance binding affinity to wild-type NS5B; parameters: species or system HCV GT-1b
T2 construct: 21 residue C-terminal truncated forms of the NS5b protein (amino acids 1-570); GT-1b; made in house
Excerpt: as §1, §2

[4] = tested on: genotype 1b (Con-1 strain) HCV replicon with NS5B M423T mutation; test: Transient transfection replicon assay, NS5B M423T mutant PI-hRluc replicon in Huh-lunet cells; format: cell-based, HCV genotype 1b (Con-1 strain); settings: Hepatitis C virus, 72 h, read-out: Replicon transient transfection EC50 M423T
[5] = tested on: genotype 1b (Con-1 strain) HCV replicon, wild-type; test: Transient transfection replicon assay, wild-type PI-hRluc replicon in Huh-lunet cells; format: cell-based, HCV genotype 1b (Con-1 strain); settings: Hepatitis C virus, 72 h, wild-type genotype 1b PI-hRluc replicon, three days
[6] = SPR, Biacore T100, 25° C., wild-type NS5B, read-out: Wild-type KD

| Structure (SMILES) | EC50 (HCV replicon) [nM] | Kd [1] [nM] | Fold difference [2] | Kd [3, 6] [nM] | EC50 [4] [nM] | EC50 [5] [nM] | Kd [3] [nM] |
| --- | --- | --- | --- | --- | --- | --- | --- |
| CC1=CC[C@H](C(=O)N(c2cc(C#CC(C)(C)C)sc2C(=O)O)C(C)C)[C@H](C)C1 (single isomer, unassigned) [Example 1] | 8 | 7.7 | 5.6 | 1.4 |  |  |  |
| CC1=CC[C@@H](C(=O)N(c2cc(C#CC(C)(C)C)sc2C(=O)O)C(C)C)[C@H](C)C1 (single isomer, unassigned) [Example 2] | 5 | 26.8 | 9.5 | 2.8 |  |  |  |
| CC(C)N(c1cc(C#CC(C)(C)C)sc1C(=O)O)C(=O)[C@H]1CC[C@H](C)CC1 [Comparative example 1, 5-(3,3-Dimethylbut-1-ynyl)-3-((1r,4r)-N-isopropyl-4-methylcyclohexanecarboxamido)thiophene-2-carboxylic acid, reference compound] | 26 | 2.78 | 16 | 1.7 | 293 | 26 |  |
| CC(C)(C)C#Cc1cc(N(C(=O)[C@H]2CC[C@H](C)CC2)[C@H]2CC[C@H](O)CC2)c(C(=O)O)s1 [Comparative example 2, 5-(3,3-Dimethylbut-1-ynyl)-3-((1r,4R)—N-((1r,4R)-4-hydroxycyclohexyl)-4-methylcyclohexanecarboxamido)thiophene-2-carboxylic acid, reference compound] | 6 |  |  |  | 343 | 10 |  |
| CC(C)N(C(=O)[C@H]1CC[C@H](C)C[C@@H]1C)c1cc(C#CC(C)(C)C)sc1C(=O)O [Comparative example 3, 5-(3,3-Dimethylbut-1-ynyl)-3-((1S,2S,4S)—N-isopropyl-2,4-dimethylcyclohexanecarboxamido)thiophene-2-carboxylic acid, reference compound] | 50 |  |  |  |  |  |  |
| CC(C)N(C(=O)[C@@H]1CC[C@@H](C)C[C@H]1C)c1cc(C#CC(C)(C)C)sc1C(=O)O [Comparative example 4, 5-(3,3-Dimethylbut-1-ynyl)-3-((1R,2R,4R)—N-isopropyl-2,4-dimethylcyclohexanecarboxamido)thiophene-2-carboxylic acid, reference compound] | 8 | 144 | 40 | 3.6 |  |  |  |
| CC1=CC[C@H](C(=O)N(c2cc(C#CC(C)(C)C)sc2C(=O)O)C(C)C)[C@@H](C)C1 [Example 3, 5-(3,3-Dimethylbut-1-ynyl)-3-((1S,6S)—N-isopropyl-4,6-dimethylcyclohex-3-enecarboxamido)thiophene-2-carboxylic acid] | 5 | 4.2 |  | 0.7 | 14 | 5 |  |
| CC1=CC[C@@H](C(=O)N(c2cc(C#CC(C)(C)C)sc2C(=O)O)C(C)C)[C@@H](C)C1 [Example 4, 5-(3,3-dimethylbut-1-ynyl)-3-((1R,6S)—N-isopropyl-4,6-dimethylcyclohex-3-enecarboxamido)thiophene-2-carboxylic acid] | 38 | 18.5 |  | 6.5 |  |  |  |
| CC1=CC[C@@H](C(=O)N(c2cc(C#CC(C)(C)C)sc2C(=O)O)C(C)C)CC1 [Example 5, (S)-5-(3,3-Dimethylbut-1-ynyl)-3-(N-isopropyl-4-methylcyclohex-3-enecarboxamido)thiophene-2-carboxylic acid] | 10 | 13.7 | 9.0 |  |  |  | 1.5 |
| CC1=CC[C@H](C(=O)N(c2cc(C#CC(C)(C)C)sc2C(=O)O)C(C)C)CC1 [Example 6, (R)-5-(3,3-Dimethylbut-1-ynyl)-3-(N-isopropyl-4-methylcyclohex-3-enecarboxamido)thiophene-2-carboxylic acid] | 7 | 14.3 | 11 | 1.3 | 40 | 8 |  |
| CC1=CC[C@H](C(=O)N(c2cc(C#CC(C)(C)C)sc2C(=O)O)[C@H]2CC[C@H](O)CC2)[C@@H](C)C1 [Example 7, 5-(3,3-Dimethylbut-1-ynyl)-3-((1S,6S)—N-((1r,4S)-4-hydroxycyclohexyl)-4,6-dimethylcyclohex-3-enecarboxamido)thiophene-2-carboxylic acid] | < 4.5 |  |  |  |  |  |  |
| CC1=CC[C@H](C(=O)N(c2cc(C#CC(C)(C)C)sc2C(=O)O)[C@H]2CC[C@H](O)CC2)CC1 [Example 8, 5-(3,3-Dimethylbut-1-ynyl)-3-((R)—N-((1r,4R)-4-hydroxycyclohexyl)-4-methylcyclohex-3-enecarboxamido)thiophene-2-carboxylic acid] | < 2.3 |  |  |  |  |  |  |
